Tested on: brain of rats subjected to severe traumatic brain injury (sTBI)
Experiment: Ingenuity pathway analysis of differentially regulated genes after sTBI (canonical pathways, diseases and molecular functions; Example 4)
Set-up: species or system rat
Protocol: Pathway analysis of the differentially regulated genes was carried out using the Ingenuity pathway analysis package. The analysis was performed with special reference to pathways and molecular processes and diseases associated with neurodegenerative disease, including dementia, Alzheimer's disease, ALS, TBI and stroke, and with scarring and fibrosis, including glaucoma and normal pressure hydrocephalus (NPH) after subarachnoid haemorrhage.

[1] = TBI + 5 mg/kg LMW-DS, 7 days after TBI
[2] = TBI + 15 mg/kg LMW-DS, 2 days after TBI
[3] = TBI + 15 mg/kg LMW-DS, 7 days after TBI, relative to control
[4] = TBI + 15 mg/kg LMW-DS, 7 days after TBI
[5] = TBI + 15 mg/kg repeat dose LMW-DS, 7 days after TBI
[6] = TBI + 15 mg/kg repeated dose LMW-DS, 7 days after TBI, relative to control
[7] = TBI + 15 mg/kg repeated dose LMW-DS, 7 days after TBI

sodium salt of dextran sulfate [LMW-DS]
Ingenuity canonical pathway: Acute Phase Response Signaling [1]: Activated | Ingenuity canonical pathway: Adrenomedullin signaling pathway [1]: Inhibited | Ingenuity canonical pathway: Cardiac Hypertrophy Signaling [1]: Activated | Ingenuity canonical pathway: Colorectal Cancer Metastasis Signaling [1]: Inhibited | Ingenuity canonical pathway: Dendritic Cell Maturation [1]: Activated | Ingenuity canonical pathway: ERK5 Signaling [1]: Inhibited | Ingenuity canonical pathway: ERK/MAPK Signaling [1]: Activated | Ingenuity canonical pathway: Endothelin-1 Signaling [1]: Activated | Ingenuity canonical pathway: Fcγ Receptor-mediated Phagocytosis in Macrophages and Monocytes [1]: Activated | Ingenuity canonical pathway: GNRH Signaling [1]: Activated | Ingenuity canonical pathway: HMGB1 Signaling [1]: Activated | Ingenuity canonical pathway: IL-1 Signaling [1]: Activated | Ingenuity canonical pathway: IL-6 Signaling [1]: Activated | Ingenuity canonical pathway: IL-8 Signaling [1]: Activated | Ingenuity canonical pathway: ILK Signaling [1]: Activated | Ingenuity canonical pathway: Leukocyte Extravasation Signaling [1]: Activated | Ingenuity canonical pathway: Neuroinflammation Signaling Pathway [1]: Activated | Ingenuity canonical pathway: Osteoarthritis Pathway [1]: Inhibited | Ingenuity canonical pathway: PI3K Signaling in B Lymphocytes [1]: Activated | Ingenuity canonical pathway: PKCO Signaling in T Lymphocytes [1]: Activated | Ingenuity canonical pathway: PPAR Signaling [1]: Inhibited | Ingenuity canonical pathway: Phospholipase C Signaling [1]: Activated | Ingenuity canonical pathway: Production of Nitric Oxide and Reactive Oxygen Species in Macrophages [1]: Activated | Ingenuity canonical pathway: Protein Kinase A Signaling [1]: Inhibited | Ingenuity canonical pathway: Role of NFAT in Regulation of the Immune Response [1]: Activated | Ingenuity canonical pathway: Signaling by Rho Family GTPases [1]: Activated | Ingenuity canonical pathway: Synaptic Long Term Depression [1]: Activated | Ingenuity canonical pathway: Wnt/β-catenin Signaling [1]: Inhibited | Ingenuity canonical pathway: cAMP-mediated signaling [1]: Inhibited | Ingenuity canonical pathway: mTOR Signaling [1]: Activated | Effect on diseases or functions annotation: Apoptosis [2]: Inhibited | Effect on diseases or functions annotation: Apoptosis of tumor cell lines [2]: Activated | Effect on diseases or functions annotation: Behavior [2]: Inhibited | Effect on diseases or functions annotation: Cell death [2]: Inhibited | Effect on diseases or functions annotation: Necrosis [2]: Inhibited | Effect on diseases or functions annotation: Quantity of blood cells [2]: Inhibited | Effect on diseases or functions annotation: Quantity of cells [2]: Inhibited | Effect on diseases or functions annotation: Quantity of lymphocytes [2]: Inhibited | z score, Ingenuity canonical pathway: Endothelin-1 Signaling [3]: 1 | z score, Ingenuity canonical pathway: Phospholipase C Signaling [3]: 2 | z score, Ingenuity canonical pathway: cAMP-mediated signaling [3]: 1 | Diseases or functions annotation: Abdominal neoplasm [4]: Inhibited | Diseases or functions annotation: Apoptosis [4]: Inhibited | Diseases or functions annotation: Apoptosis of tumor cell lines [4]: Activated | Diseases or functions annotation: Cancer [4]: Activated | Diseases or functions annotation: Carcinoma [4]: Activated | Diseases or functions annotation: Cell death [4]: Inhibited | Diseases or functions annotation: Cell death of tumor cell lines [4]: Activated | Diseases or functions annotation: Cell movement of myeloid cells [4]: Activated | Diseases or functions annotation: Development of carcinoma [4]: Activated | Diseases or functions annotation: Development of connective tissue cells [4]: Activated | Diseases or functions annotation: Development of malignant tumor [4]: Inhibited | Diseases or functions annotation: Differentiation of bone cells [4]: Activated | Diseases or functions annotation: Epithelial neoplasm [4]: Activated | Diseases or functions annotation: Extracranial solid tumor [4]: Activated | Diseases or functions annotation: Frequency of tumor [4]: Inhibited | Diseases or functions annotation: Genitourinary tumor [4]: Activated | Diseases or functions annotation: Incidence of tumor [4]: Inhibited | Diseases or functions annotation: Leukocyte migration [4]: Activated | Diseases or functions annotation: Necrosis [4]: Activated | Diseases or functions annotation: Non-melanoma solid tumor [4]: Activated | Diseases or functions annotation: Quantity of cells [4]: Activated | Diseases or functions annotation: Solid tumor [4]: Activated | Diseases or functions annotation: Transcription [4]: Activated | Diseases or functions annotation: Transcription of RNA [4]: Activated | Diseases or functions annotation: Tumorigenesis of epithelial neoplasm [4]: Activated | Diseases or functions annotation: Tumorigenesis of tissue [4]: Activated | Ingenuity canonical pathway: Endothelin-1 Signaling [4]: Activated | Ingenuity canonical pathway: Phospholipase C Signaling [4]: Activated | Ingenuity canonical pathway: cAMP-mediated signaling [4]: Activated | Diseases or functions annotation: Abdominal cancer [5]: Inhibited | Diseases or functions annotation: Abdominal neoplasm [5]: Inhibited | Diseases or functions annotation: Adenocarcinoma [5]: Inhibited | Diseases or functions annotation: Branching of cells [5]: Activated | Diseases or functions annotation: Carcinoma [5]: Inhibited | Diseases or functions annotation: Cell movement [5]: Activated | Diseases or functions annotation: Cell-cell contact [5]: Activated | Diseases or functions annotation: Concentration of hormone [5]: Activated | Diseases or functions annotation: Concentration of lipid [5]: Inhibited | Diseases or functions annotation: Dendritic growth/branching [5]: Inhibited | Diseases or functions annotation: Development of connective tissue cells [5]: Inhibited | Diseases or functions annotation: Development of gap junctions [5]: Activated | Diseases or functions annotation: Development of neurons [5]: Activated | Diseases or functions annotation: Developmental process of synapse [5]: Activated | Diseases or functions annotation: Differentiation of bone cells [5]: Inhibited | Diseases or functions annotation: Differentiation of connective tissue cells [5]: Inhibited | Diseases or functions annotation: Digestive organ tumor [5]: Inhibited | Diseases or functions annotation: Digestive system cancer [5]: Inhibited | Diseases or functions annotation: Epithelial neoplasm [5]: Inhibited | Diseases or functions annotation: Extracranial solid tumor [5]: Activated | Diseases or functions annotation: Formation of cellular protrusions [5]: Activated | Diseases or functions annotation: Formation of intercellular junctions [5]: Activated | Diseases or functions annotation: Gastrointestinal tumor [5]: Inhibited | Diseases or functions annotation: Hematologic cancer [5]: Inhibited | Diseases or functions annotation: Hematopoietic neoplasm [5]: Inhibited | Diseases or functions annotation: Learning [5]: Activated | Diseases or functions annotation: Microtubule dynamics [5]: Activated | Diseases or functions annotation: Migration of cells [5]: Activated | Diseases or functions annotation: Morphogenesis of neurons [5]: Activated | Diseases or functions annotation: Neurotransmission [5]: Activated | Diseases or functions annotation: Non-hematological solid tumor [5]: Inhibited | Diseases or functions annotation: Non-melanoma solid tumor [5]: Inhibited | Diseases or functions annotation: Nonhematologic malignant neoplasm [5]: Inhibited | Diseases or functions annotation: Obesity [5]: Activated | Diseases or functions annotation: Organization of cytoplasm [5]: Activated | Diseases or functions annotation: Organization of cytoskeleton [5]: Activated | Diseases or functions annotation: Quantity of Ca^2+ [5]: Activated | Diseases or functions annotation: Quantity of carbohydrate [5]: Inhibited | Diseases or functions annotation: Quantity of cells [5]: Activated | Diseases or functions annotation: Seizure disorder [5]: Activated | Diseases or functions annotation: Size of body [5]: Activated | Diseases or functions annotation: Skin lesion [5]: Activated | Diseases or functions annotation: Transport of ion [5]: Activated | Diseases or functions annotation: Transport of metal [5]: Activated | Diseases or functions annotation: Transport of molecule [5]: Activated | Diseases or functions annotation: Tumorigenesis of tissue [5]: Inhibited | z score, Ingenuity canonical pathway: 3-phosphoinositide Degradation [6]: 2 | z score, Ingenuity canonical pathway: Acute Phase Response Signaling [6]: −0.447 | z score, Ingenuity canonical pathway: Adrenomedullin signaling pathway [6]: −0.378 | z score, Ingenuity canonical pathway: B Cell Receptor Signaling [6]: −0.447 | z score, Ingenuity canonical pathway: Ephrin Receptor Signaling [6]: 2.236 | z score, Ingenuity canonical pathway: Fc Epsilon RI Signaling [6]: −1 | z score, Ingenuity canonical pathway: G Beta Gamma Signaling [6]: 2.236 | z score, Ingenuity canonical pathway: NF-κB Signaling [6]: 0.447 | z score, Ingenuity canonical pathway: Opioid Signaling Pathway [6]: 0.816 | z score, Ingenuity canonical pathway: Role of NFAT in Cardiac Hypertrophy [6]: 0.447 | z score, Ingenuity canonical pathway: Role of NFAT in Regulation of the Immune Response [6]: 2.236 | z score, Ingenuity canonical pathway: Signaling by Rho Family GTPases [6]: 1 | z score, Ingenuity canonical pathway: Superpathway of Inositol Phosphate Compounds [6]: 2 | z score, Ingenuity canonical pathway: Synaptic Long Term Depression [6]: 1.342 | Ingenuity canonical pathway: 3-phosphoinositide Degradation [7]: Activated | Ingenuity canonical pathway: Acute Phase Response Signaling [7]: Inhibited | Ingenuity canonical pathway: Adrenomedullin signaling pathway [7]: Inhibited | Ingenuity canonical pathway: B Cell Receptor Signaling [7]: Inhibited | Ingenuity canonical pathway: Ephrin Receptor Signaling [7]: Activated | Ingenuity canonical pathway: Fc Epsilon RI Signaling [7]: Inhibited | Ingenuity canonical pathway: G Beta Gamma Signaling [7]: Activated | Ingenuity canonical pathway: NF-κB Signaling [7]: Activated | Ingenuity canonical pathway: Opioid Signaling Pathway [7]: Activated | Ingenuity canonical pathway: Role of NFAT in Cardiac Hypertrophy [7]: Activated | Ingenuity canonical pathway: Role of NFAT in Regulation of the Immune Response [7]: Activated | Ingenuity canonical pathway: Signaling by Rho Family GTPases [7]: Activated | Ingenuity canonical pathway: Superpathway of Inositol Phosphate Compounds [7]: Activated | Ingenuity canonical pathway: Synaptic Long Term Depression [7]: Activated

— patent publication US20220128542A1, “TREATMENT EFFICIENCY EVALUATION” (TX MEDIC AB, priority 2019, published 2022)
